Test results reported in US20020058694A1, “Ureido and thioureido derivatives of 4-amino-2(5H)-furanones and 4-amino-2(5H)-thiophenones as antitumor agents” (Roche Diagnostics GmbH, priority 1997, published 2002).
In brackets after ≈: the same amount, converted by molar mass.

How the values were obtained:
Format in all cases: cell-based
Details in all cases: 144 hours of incubation, concentration which causes the death of 50% of cell population
HT 29 = assay: MTT cytotoxicity assay, HT 29 human colon tumor cell line
Experimental: (§1) The compounds of the invention were tested against three human colon tumor cell lines (HT 29, HCT 116 and LoVo). After 144 hours of incubation of the cells with the compound to be tested, the cytotoxicity is evaluated using the MTT assay (Mosman, T. “Rapid Colorimetric Assay for Cellular Growth and Survival: Application to Proliferation and Cytotoxicity Assay”; J. Immunol. Methods, (1983), 65, 66; Green, L. M., “Rapid Colorimetric Assay for Cell Viability; Application to the Quantitation of Cytotoxic and Growth Inhibitory Lymphokines”, J. Immunol. Methods, (1984), 70, 257-268). The results are expressed as IC50 ([…]), that it the concentration of the tested compound which causes the death of 50% of cell population.

LoVo = assay: MTT cytotoxicity assay, LoVo human colon tumor cell line
Experimental: as §1

HCT 116 = assay: MTT cytotoxicity assay, HCT 116 human colon tumor cell line
Experimental: as §1

| Structure (SMILES) | IC50 (HT 29) [µg/mL] | IC50 (LoVo) [µg/mL] | IC50 (HCT 116) [µg/mL] |
| --- | --- | --- | --- |
| O=C(NC1=CC(=O)OC1)Nc1ccc(Cl)cc1 [Example 2, 4-[N-(4-chlorophenyl)aminocarbonylamino]-2(5H)-furanone] | 0.032 (≈ 0.127 µM) | 0.01 (≈ 0.0396 µM) | 0.034 (≈ 0.135 µM) |
| CCc1ccc(NC(=O)NC2=CC(=O)OC2)cc1Cl [Example 3, 4-[N-(4-ethyl-3-chlorophenyl)aminocarbonylamino)-2(5H)-furanone] | 0.003 (≈ 0.0107 µM) | 0.034 (≈ 0.121 µM) | < 0.01 |
